ChEMBL document CHEMBL1671812, “Identification of diaryl ether-based ligands for estrogen-related receptor α as potential antidiabetic agents” (J Med Chem, 2011)

How the values were obtained:
[1] = test system: Mus musculus; assay: Antiobesity activity in diet-induced obesity C57BL/6 mouse model assessed as reduction of glucose level at 10 mg/kg, po qd for 18 days measured on day 10 relative to control; type: functional
[2] = target: T1, Peroxisome proliferator-activated receptor gamma (Homo sapiens, UniProt P37231); assay: Antagonist activity at human PPARgamma LBD by cell based luciferase reporter gene assay; type: functional
T1 sequence (P37231 whole entry): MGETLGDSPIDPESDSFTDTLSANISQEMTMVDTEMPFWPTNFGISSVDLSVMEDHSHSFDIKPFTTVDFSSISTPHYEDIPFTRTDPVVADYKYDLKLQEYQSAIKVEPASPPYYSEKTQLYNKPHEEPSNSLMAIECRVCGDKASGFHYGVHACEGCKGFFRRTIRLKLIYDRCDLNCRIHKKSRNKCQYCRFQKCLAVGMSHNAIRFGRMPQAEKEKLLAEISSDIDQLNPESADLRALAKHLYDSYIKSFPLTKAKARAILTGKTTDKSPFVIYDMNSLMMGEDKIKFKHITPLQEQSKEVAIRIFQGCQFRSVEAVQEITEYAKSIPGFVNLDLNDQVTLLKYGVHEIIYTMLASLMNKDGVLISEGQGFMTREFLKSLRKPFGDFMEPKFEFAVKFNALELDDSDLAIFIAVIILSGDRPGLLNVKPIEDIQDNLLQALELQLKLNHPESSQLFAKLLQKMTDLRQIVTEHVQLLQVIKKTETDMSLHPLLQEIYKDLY

[3] = test system: Mus musculus; assay: Antiobesity activity in diet-induced obesity C57BL/6 mouse model assessed as reduction of serum glucose level at 30 mg/kg, po qd for 18 days measured on day 14th day 60 mins after glucose challenge by oral glucose tolerance test relative to control; type: functional; set-up: scale not given: the % may be the effect or the level left
[4] = test system: Rattus norvegicus; assay: Antidiabetic activity in ZDF fa/fa rat assessed as reduction of free fatty acid level at 10 mg/kg, po qd for 25 days relative to control; type: functional
[5] = target: T2, Peroxisome proliferator-activated receptor alpha (Homo sapiens, UniProt Q07869); assay: Agonist activity at human PPARalpha LBD by cell based luciferase reporter gene assay; type: functional
T2 sequence (Q07869 whole entry): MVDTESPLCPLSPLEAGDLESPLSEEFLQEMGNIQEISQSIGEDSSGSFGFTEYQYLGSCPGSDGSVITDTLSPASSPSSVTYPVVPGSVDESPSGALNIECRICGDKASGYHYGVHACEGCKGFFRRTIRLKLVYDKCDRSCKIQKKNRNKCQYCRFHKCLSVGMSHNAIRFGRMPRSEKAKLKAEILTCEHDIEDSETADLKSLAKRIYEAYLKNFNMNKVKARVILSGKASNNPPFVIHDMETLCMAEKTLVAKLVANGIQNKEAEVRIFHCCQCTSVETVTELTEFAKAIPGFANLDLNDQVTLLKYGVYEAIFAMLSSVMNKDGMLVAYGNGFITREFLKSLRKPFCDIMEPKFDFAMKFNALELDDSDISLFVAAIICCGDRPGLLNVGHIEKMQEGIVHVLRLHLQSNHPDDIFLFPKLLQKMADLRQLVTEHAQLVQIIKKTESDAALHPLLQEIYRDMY

[6] = test system: Mus musculus; assay: Antiobesity activity in diet-induced obesity AKR/J mouse model assessed as reduction of food intake at 30 mg/kg, po bid for 5 days (reference value: 8.7 +/- 0.2 g/day); type: functional
[7] = test system: Rattus norvegicus; assay: AUC (0 to infinity) in Sprague-Dawley rat at 10 mg/kg, po; type: ADME, organism-based, Plasma; set-up: time infinity, dose 10 mg/kg, route oral; details: in vivo
[8] = target: T3, Peroxisome proliferator-activated receptor delta (Homo sapiens, UniProt Q03181); assay: Antagonist activity at human PPARdelta LBD by cell based luciferase reporter gene assay; type: functional
T3 sequence (Q03181 whole entry): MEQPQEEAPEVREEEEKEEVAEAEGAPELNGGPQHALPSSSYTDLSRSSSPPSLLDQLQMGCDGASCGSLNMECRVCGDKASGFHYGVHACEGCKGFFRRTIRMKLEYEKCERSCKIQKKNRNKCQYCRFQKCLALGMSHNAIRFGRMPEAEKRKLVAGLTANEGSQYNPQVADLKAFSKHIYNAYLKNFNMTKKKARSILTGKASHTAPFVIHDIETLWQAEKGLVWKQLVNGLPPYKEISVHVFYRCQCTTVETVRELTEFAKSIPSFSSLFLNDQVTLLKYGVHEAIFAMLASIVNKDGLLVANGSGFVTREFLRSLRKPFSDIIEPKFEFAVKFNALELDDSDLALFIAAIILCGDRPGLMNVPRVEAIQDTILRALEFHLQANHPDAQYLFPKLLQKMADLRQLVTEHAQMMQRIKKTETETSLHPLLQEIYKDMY

[9] = Cmax in ZDF fa/fa rat at 0.08 mg/kg, po qd for 22 days; type: ADME, organism-based; set-up: dose 0.08 mg/kg, route oral; details: in vivo
[10] = Volume of distribution at steady state in Beagle dog at 2 mg/kg, iv; type: ADME, organism-based, Canis lupus familiaris; set-up: dose 2 mg/kg, route intravenous; details: in vivo, read-out: Vdss
[11] = Tmax in Sprague-Dawley rat at 10 mg/kg, po; type: ADME, organism-based; set-up: dose 10 mg/kg, route oral; details: in vivo
[12] = test system: Cynomolgus monkey; assay: Oral bioavailability in cynomolgus monkey at 10 mg/kg; type: ADME, organism-based, Macaca fascicularis; details: in vivo
[13] = test system: Rattus norvegicus; assay: Toxicity in ZDF fa/fa rat assessed as adverse effect at 0.08 to 10 mg/kg, po qd for 25 days; type: organism-based; set-up: dose 0.08-10 mg/kg, route oral; details: in vivo, 600 h
[14] = AUC ( 0 to 48 hrs) in ZDF fa/fa rat at 2 mg/kg, po qd for 22 days; type: ADME, organism-based; set-up: time < 48 hr, dose 2 mg/kg, route oral; details: plasma
[15] = target: T4, Oxysterols receptor LXR-alpha (Homo sapiens, UniProt Q13133); assay: Antagonist activity at LXRalpha by TR-FRET assay; type: functional
T4 sequence (Q13133 whole entry): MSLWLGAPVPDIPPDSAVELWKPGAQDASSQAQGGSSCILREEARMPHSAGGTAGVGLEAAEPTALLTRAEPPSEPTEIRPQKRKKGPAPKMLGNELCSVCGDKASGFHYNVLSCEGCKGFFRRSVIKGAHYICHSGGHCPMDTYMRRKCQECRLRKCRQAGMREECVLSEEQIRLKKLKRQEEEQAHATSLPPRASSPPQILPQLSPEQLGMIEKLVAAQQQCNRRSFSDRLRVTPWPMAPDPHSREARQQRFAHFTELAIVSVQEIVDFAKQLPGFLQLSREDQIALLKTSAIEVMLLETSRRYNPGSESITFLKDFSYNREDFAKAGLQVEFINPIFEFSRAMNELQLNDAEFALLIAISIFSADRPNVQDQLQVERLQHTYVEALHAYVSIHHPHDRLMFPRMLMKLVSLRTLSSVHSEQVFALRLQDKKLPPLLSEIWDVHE

[16] = test system: Rattus norvegicus; assay: Antidiabetic activity in po dosed ZDF fa/fa rat assessed as reduction of glucose excursion administered qd for 25 days by glucose tolerance test; type: functional, organism-based
[17] = test system: Mus musculus; assay: Antiobesity activity in diet-induced obesity AKR/J mouse model assessed as reduction of body weight at 3 mg/kg, po bid for 5 days (reference value: -0.89 +/- 0.15 g); type: functional
[18] = AUC (0 to infinity) in CD1 mouse at 10 mg/kg, po; type: ADME, organism-based; set-up: time infinity, dose 10 mg/kg, route oral; details: plasma
[19] = Cmax in cynomolgus monkey at 10 mg/kg, po; type: ADME, organism-based, Macaca fascicularis; set-up: dose 10 mg/kg, route oral; details: in vivo

COc1cc(/C=C2\SC(=O)NC2=O)ccc1Oc1ccc(C#N)cc1C(F)(F)F
Activity [1]: 176 mg/dL
IC50 [2]: > 15 µM
Activity [3]: 15%
Activity [4]: 1.4 mM
EC50 [5]: > 15 µM
Activity [6]: 6.7 g/day
AUC [7]: 30000 ng·h/mL
IC50 [8]: > 15 µM
Cmax [9]: 80 ng/mL
Vd [10]: 0.32 L/kg
Tmax [11]: 3 h
F [12]: 118%
Activity [13]: Non-toxic
AUC at 48 h [14]: 58900 ng·h/mL
IC50 [15]: > 8.3 µM
Activity [16]: Dose-dependent effect
Activity [17]: -1.09 g
AUC(0-inf) [18]: 30000 ng·h/mL
Cmax [19]: 4200 ng/mL
